From the NIST ThermoML archive (doi:10.1016/j.fluid.2016.04.009)

Tests used:
[1] = molar heat capacity at constant pressure; details: 298.15 K; 101.33 kPa; Liquid; Drop calorimetry
[2] = refractive index (Na D-line) (dimensionless); details: 101.33 kPa, Liquid, Standard Abbe refractometry
[3] = for viscosity / mass density: 101.33 kPa; for viscosity / mass density / surface tension liquid-gas: Liquid; for viscosity: Concentric cylinders viscometry; for mass density: Vibrating tube method; for surface tension liquid-gas: Pendant drop shape; for Normal melting temperature: Crystal, DTA
[4] = Molar enthalpy of transition or fusion; details: Crystal; DSC

CCCC[n+]1ccn(C)c1.O=S(=O)([N-]S(=O)(=O)C(F)(F)F)C(F)(F)F
Details | molar heat capacity at constant pressure [J/K/mol]
[1] | 565.73

[2]
Details | refractive index
288.15 K | 1.43015
293.15 K | 1.4286
298.15 K | 1.42705
303.15 K | 1.4255
308.15 K | 1.42396
313.15 K | 1.42241
318.15 K | 1.42086

CC(C)Cn1cc[n+](C)c1.O=S(=O)([N-]S(=O)(=O)C(F)(F)F)C(F)(F)F
Details | mass density [kg/m3] | refractive index | surface tension liquid-gas [mN/m] | viscosity [mPa·s]
[2], 288.15 K | – | 1.4301 | – | –
[2], 293.15 K | – | 1.42854 | – | –
[2], 298.15 K | – | 1.42699 | – | –
[2], 303.15 K | – | 1.42543 | – | –
[2], 308.15 K | – | 1.42387 | – | –
[2], 313.15 K | – | 1.42232 | – | –
[2], 318.15 K | – | 1.42076 | – | –
[3], 293.15 K | 1442.1 | – | – | 107.35
[3], 298.15 K | 1437.2 | – | – | 81.44
[3], 298.2 K | – | – | 32.72 | –
[3], 303.15 K | 1432.4 | – | – | 63.36
[3], 308.15 K | 1427.7 | – | – | 50.3
[3], 308.2 K | – | – | 32.26 | –
[3], 313.15 K | 1422.9 | – | – | 40.69
[3], 318.15 K | 1418.2 | – | – | 33.4
[3], 318.2 K | – | – | 31.81 | –
[3], 323.15 K | 1413.5 | – | – | 27.81
[3], 328.15 K | 1408.8 | – | – | 23.46
[3], 328.2 K | – | – | 31.35 | –
[3], 333.15 K | 1404.2 | – | – | 20.05
[3], 338.15 K | 1399.5 | – | – | 17.24
[3], 338.2 K | – | – | 30.9 | –
[3], 343.15 K | 1394.9 | – | – | 14.99
[3], 343.2 K | – | – | 30.67 | –
[3], 348.15 K | 1390.3 | – | – | 13.14
[3], 353.15 K | 1385.7 | – | – | 11.63
[3], 358.15 K | 1381.1 | – | – | 10.31
[3], 363.15 K | 1376.6 | – | – | 9.22

Details | molar heat capacity at constant pressure [J/K/mol]
[1] | 565.31

CCCCCC[n+]1ccn(C)c1.O=S(=O)([N-]S(=O)(=O)C(F)(F)F)C(F)(F)F
Details | Normal melting temperature [°C]
[3] | -10.5

CC(C)C[N+]1(C)CCCCC1.O=S(=O)([N-]S(=O)(=O)C(F)(F)F)C(F)(F)F
Details | mass density [kg/m3] | refractive index | surface tension liquid-gas [mN/m] | viscosity [mPa·s]
[2], 288.15 K | – | 1.43387 | – | –
[2], 293.15 K | – | 1.43243 | – | –
[2], 298.15 K | – | 1.43099 | – | –
[2], 303.15 K | – | 1.42955 | – | –
[2], 308.15 K | – | 1.42812 | – | –
[2], 313.15 K | – | 1.42668 | – | –
[2], 318.15 K | – | 1.42524 | – | –
[2], 323.15 K | – | 1.42381 | – | –
[2], 328.15 K | – | 1.42237 | – | –
[2], 333.15 K | – | 1.42093 | – | –
[3], 303.15 K | 1392.9 | – | – | 125.12
[3], 308.15 K | 1388.6 | – | – | 96.4
[3], 308.2 K | – | – | 33.9 | –
[3], 313.15 K | 1384.4 | – | – | 76.03
[3], 318.15 K | 1380.1 | – | – | 60.67
[3], 318.2 K | – | – | 33.45 | –
[3], 323.15 K | 1375.9 | – | – | 49.34
[3], 328.15 K | 1371.7 | – | – | 40.71
[3], 328.2 K | – | – | 33.01 | –
[3], 333.15 K | 1367.5 | – | – | 34.11
[3], 338.15 K | 1363.3 | – | – | 28.76
[3], 338.2 K | – | – | 32.56 | –
[3], 343.15 K | 1359.1 | – | – | 24.57
[3], 343.2 K | – | – | 32.34 | –
[3], 348.15 K | 1355 | – | – | 21.18
[3], 353.15 K | 1350.8 | – | – | 18.47
[3], 358.15 K | 1346.7 | – | – | 16.14
[3], 363.15 K | 1342.7 | – | – | 14.25

Details | Molar enthalpy of transition or fusion [kcal/mol] | Normal melting temperature [°C]
[3] | – | 14.8
[4] | 0.574 | –

CCCC[N+]1(C)CCCCC1.O=S(=O)([N-]S(=O)(=O)C(F)(F)F)C(F)(F)F
Details | mass density [kg/m3] | refractive index | surface tension liquid-gas [mN/m] | viscosity [mPa·s]
[2], 288.15 K | – | 1.43251 | – | –
[2], 293.15 K | – | 1.43105 | – | –
[2], 298.15 K | – | 1.42959 | – | –
[2], 303.15 K | – | 1.42813 | – | –
[2], 308.15 K | – | 1.42667 | – | –
[2], 313.15 K | – | 1.42521 | – | –
[2], 318.15 K | – | 1.42375 | – | –
[3], 293.15 K | 1386.9 | – | – | 261.28
[3], 298.15 K | 1382.5 | – | – | 189.11
[3], 298.2 K | – | – | 34.14 | –
[3], 303.15 K | 1378.1 | – | – | 141.44
[3], 308.15 K | 1373.8 | – | – | 108.27
[3], 308.2 K | – | – | 33.65 | –
[3], 313.15 K | 1369.5 | – | – | 84.87
[3], 318.15 K | 1365.2 | – | – | 67.24
[3], 318.2 K | – | – | 33.17 | –
[3], 323.15 K | 1361 | – | – | 54.34
[3], 328.15 K | 1356.7 | – | – | 44.55
[3], 328.2 K | – | – | 32.68 | –
[3], 333.15 K | 1352.5 | – | – | 37.09
[3], 338.15 K | 1348.3 | – | – | 31.09
[3], 338.2 K | – | – | 32.2 | –
[3], 343.15 K | 1344.1 | – | – | 26.41
[3], 343.2 K | – | – | 31.96 | –
[3], 348.15 K | 1340 | – | – | 22.65
[3], 353.15 K | 1335.9 | – | – | 19.65
[3], 358.15 K | 1331.8 | – | – | 17.09
[3], 363.15 K | 1327.7 | – | – | 15.01

Details | molar heat capacity at constant pressure [J/K/mol]
[1] | 607.52
